Measurements from patent US12715851B2, “4′-substituted analogues of fisetin and their use in the treatment of cancer” (Stellenbosch University, priority 2020, dated 2026).
pIC50: −log10 of the molar value. Entries after “also recorded” stand apart in the source; their conditions may differ.

Assays:
[1] = Acute toxicity, fed orally for two weeks; type: in vivo; conditions: Fisetin 50 mg/kg, 3c 25 and 50 mg/kg body weight
Description: Fisetin analogue 3c was used to assess the potential toxicity of these analogues in a pre-clinical model. To test the acute toxicity, Fisetin (50 mg/kg body weight), analogue 3c (25 mg/kg and 50 mg/kg body weight), and vehicle control (5% DMSO, 45% PEG-300 and 50% saline) was fed orally for two weeks. Abnormal clinical signs such as decreased motor activity, sensory reflection, body weight, food intake, and water intake were monitored during the treatment period. An increase in body weight was observed among all groups throughout the treatment period (FIG. 7A). […] This variation could be due to consistent frequency of dosage.

[2] = tested on: cytochrome P450 reductase (CytP450R); assay: Hepatotoxicity: specific activity of cytochrome P450 reductase; type: in vivo, swiss albino mice; conditions: 50 mg/kg orally, two weeks
Description: (§1) Hepatotoxicity is considered to be one of the major challenges for drug development schemes. The liver is the primary organ for the metabolism or biotransformation of a given drug. To assess the hepatotoxicity of these compounds, the effects of Fisetin and analogue 3c on various hepatic enzymes was assessed.
(§2) A lipid peroxidation assay was performed on microsomal liver fraction and determined in terms of TBARS formation. […] The modulatory effects of Fisetin and analogue 3c were determined on the specific activities of cytochrome b5 reductase (Cytb5R) and cytochrome P450 reductase (CytP450R), phase I enzyme of xenobiotic metabolism. Fisetin and analogue 3c caused reduction in the specific activity of cytochrome b5 reductase. Fisetin decreased Cytb5R specific activity by 66% whereas analogue 3c (50 mg/kg) caused a 36% reduction in specific activity (FIG. 7F). An increase in specific activity of CytP450R by Fisetin and analogue 3c was observed. Fisetin and analogue 3c (50 mg/kg) increased the specific activity by 15% and 13%, respectively (FIG. 7G). Next, the specific activities of phase II enzymes, glutathione S-transferase (GST) and reduced glutathione (GSH) were measured. […] Fisetin and analogue 3c (50 mg/kg) caused a decrease in specific activity of GSH by 34% and 7%, respectively (FIG. 7I). […] These analogues are therefore likely to be effective and safe phytochemicals.

SOD = assay: Hepatotoxicity: specific activity of SOD; type: in vivo, swiss albino mice; conditions: liver of treated mice
Description: as §1, §2

A549 = assay: Cell cycle distribution, propidium iodide flow cytometry; type: cell-based, human; conditions: 48 h
Description: (§3) To examine the effect of Fisetin analogues on cell cycle regulation, cells were treated with different concentrations of Fisetin analogues (5, 10 & 20 μM) for 48 h, then stained with propidium iodide and subjected to flow cytometry. All three of the tested Fisetin analogues induced G2/M phase cell cycle arrest in A549 (FIGS. 5A-5C) and H1299 human lung cancer cells (FIGS. 5D-5F).

[3] = tested on: A549 lung cancer cell line; assay: MTT cell proliferation assay, cytotoxicity after 48 h treatment; type: cell-based, human
Description: These 4′-substituted Fisetin analogues were initially screened for cytotoxicity against the A549 lung cancer cell line following a 48 h treatment period. Cytotoxicity IC50's were quantified using the MTT cell proliferation assay. The compounds were not found to interfere with the assay by causing an increase in background absorbance, no correlation was found between the lipophilicity and cytotoxicity at this position, and the substituent size was also not found to be important.

H1299 cells = assay: Western blot of signalling, cell cycle and apoptosis markers; type: cell-based, human
Excerpt: (§4) Similarly, in H1299 cells analogue 3a induced a 11.7 to 14.9% cell death (FIG. 4D right) compared to 3.8% in control cells. Analogue 3c (FIG. 4E right) and analogue 3e (FIG. 4F right) induced cell death of 8.2 to 15.1% and 8.8 to 16.6% respectively. For western blot experiments, two concentrations were used, i.e. the IC50 concentration and the next higher concentration utilized for cell proliferation for each cell line.
In H1299 cells (FIG. 4H), the higher concentrations of all three Fisetin analogues decreased the expression of pErk1/2. […]
The decreased expression of these proteins explains the decreased cell proliferation in both A549 and H1299 cells. […] Consistent with A549 data, all three the Fisetin analogues decreased the expression of anti-apoptotic protein Bcl-2 at both the concentrations. In H1299 cells, all the analogues increased cleaved Caspase-3 compared to control untreated cells. Thus, modulation of apoptosis regulatory proteins has caused apoptosis in both A549 and H1299 cells by the tested Fisetin analogues.

[4] = tested on: lipid peroxidation (MDA formation); assay: Hepatotoxicity: lipid peroxidation assay on microsomal liver fraction (TBARS); type: in vivo, swiss albino mice; conditions: microsomal liver fraction of treated mice
Description: as §1, §2

A549 cells [5] = assay: Trypan blue cell exclusion assay, cell proliferation and death; type: cell-based; conditions: Homo sapiens, A549, 48 h, read-out: IC50 concentration
Description: (§5) To evaluate the effect of Fisetin analogues 3a, 3c and 3e on cell proliferation and death of human lung cancer cells, trypan blue cell exclusion assays were performed. A549 and H1299 cancer cells were treated with different concentrations of three selected Fisetin analogues for 48 h. The Fisetin analogues decreased the viability of cells and caused cell death in both the cell lines in a concentration dependent fashion. A549 and H1299 cells were treated with 5, 10 and 20 μM of Fisetin analogues for 48 h. All three analogues decreased cell proliferation and induced cell death.

H1299 lung cancer cells = assay: as above; type: cell-based; conditions: Homo sapiens, NCI-H1299, H1299, 48 h, read-out: IC50 concentration
Description: as §5

A549 cells [6] = assay: Western blot of signalling, cell cycle and apoptosis markers; type: cell-based, human; conditions: IC50 concentration and 20 μM
Excerpt: as §4
The expression of pro-oncogenic signalling molecules, which are involved in proliferation and survival of cancer cells, were evaluated.
The effect of the Fisetin analogues on molecular markers of apoptosis was assessed.

[7] = tested on: H1299 human lung cancer cells; assay: Cell cycle distribution, propidium iodide flow cytometry; type: cell-based; conditions: H1299, 48 h
Description: as §3

[8] = tested on: reduced glutathione (GSH); assay: Hepatotoxicity: reduced glutathione; type: in vivo, swiss albino mice; conditions: 50 mg/kg orally, two weeks
Description: as §1, §2

[9] = tested on: glutathione S-transferase (GST); assay: Hepatotoxicity: specific activity of glutathione S-transferase; type: in vivo, swiss albino mice; conditions: liver of treated mice
Description: as §1, §2

## O=c1c(O)c(-c2ccc(Br)cc2)oc2cc(O)ccc12 [analogue 3c, 4′-Bromo-3,7-dihydroxyflavone]
[1]
  toxicity in mice, in words: well tolerated in animal models; also recorded: does not show toxicity; also recorded: did not cause toxicity
[2]
  increase in specific activity of CytP450R: 13%
SOD
  specific activity of SOD: moderately induced
A549; 5 μM
  G2/M phase arrest: induced cell cycle arrest
A549; 10 & 20 μM
  G2/M phase arrest: induced G2/M phase arrest in both the cell lines significantly
[3]; A549, MTT, 48 h
  cytotoxicity, in words: particularly active
[3]; A549 and/or H1299
  activity against lung cancer cell lines compared with the parent Fisetin: substantially more active
H1299 cells; IC50 concentration and 10 μM
  Phospho-Cdc-2 expression: higher concentration of analogue 3c and both concentrations of analogue 3e decreased the expression of phospho-Cdc-2
  Total Cdc-2: marginally affected by higher concentration
  expression of Bax: increased the expression of pro-apoptotic protein Bax
  expression of Cyclin B1: decreased in all treatments, except for the lower concentration of analogue 3c
  expression of phospho Akt: completely undetected
  expression of phospho-EGFR: decreased the expression of both phospho and total EGFR
  expression of total Akt: completely undetected
  expression of total EGFR: decreased the expression of both phospho and total EGFR
  expression of total Erk1/2: decreased the expression of total Erk1/2 significantly
H1299 cells; higher concentration (10 μM)
  expression of total Stat-3: decreased the expression of total Stat-3 at higher concentrations
[4]
  MDA formation (TBARS): No significant change
A549 cells [5]
  pIC50: 4.92
H1299 lung cancer cells
  pIC50: 5.27
A549 cells [6]
  cleaved caspase-3: IC50 concentration of analogue 3c also increased cleaved caspase-3 to a significant amount; also recorded: higher concentration of analogue 3c and both the concentrations of analogue 3e increased the cleaved caspase-3 marginally
  expression of p21: increased the p21 expression significantly at higher concentration
  expression of phospho Cdc-2: IC50 concentration decreased the expression to some extent; also recorded: the higher concentrations decreased the phospho-Cdc-2 expression significantly
  expression of phospho-EGFR: minimally affected except for higher concentration of analogue 3c
  expression of phospho-Erk1/2: decreased the expression of phospho-Erk1/2 significantly at both the concentrations
  expression of pro-apoptotic protein Bax: increased the expression of Bax with much higher potential
  total Stat-3 expression: not affected
  total form of Akt: slightly downregulated
  total form of Erk1/2: not affected except for 3c in the higher concentration
[7]; 5 μM
  G2/M phase arrest: induced cell cycle arrest
[7]; 10 & 20 μM
  G2/M phase arrest: induced G2/M phase arrest in both the cell lines significantly
[8]
  decrease in specific activity of GSH: 7%
[9]
  specific activities of GST compared to the control group: did not cause significant change
